# Experimental data taken from ChEMBL document CHEMBL1136837, “Unified QSAR approach to antimicrobials. 4. Multi-target QSAR modeling and comparative multi-distance study of the giant components of antiviral drug-drug complex networks” (Bioorg Med Chem, 2009).
# Experiments:
# Human alphaherpesvirus 2 = assay: Antiviral activity against Herpes simplex virus 2; format: functional, organism-based; settings: Human alphaherpesvirus 2
# Vaccinia virus = assay: Antiviral activity against Vaccinia virus; format: functional, organism-based, Orthopoxvirus vaccinia; settings: Orthopoxvirus vaccinia
# Human betaherpesvirus 5 = assay: Antiviral activity against Human cytomegalovirus; format: functional, organism-based
# [1] = test system: unidentified influenza virus; assay: Antiviral activity against influenza virus; format: functional, organism-based
# Human alphaherpesvirus 3 = assay: Antiviral activity against Varicella zoster virus; format: functional, organism-based
# Human alphaherpesvirus 1 = assay: Antiviral activity against Herpes simplex virus 1; format: functional, organism-based; settings: Human alphaherpesvirus 1
# [2] = test system: Human immunodeficiency virus 1; assay: Antiviral activity against HIV1; format: functional, organism-based
# Hepatitis C virus = assay: Antiviral activity against Hepatitis C virus; format: functional, organism-based, Hepacivirus hominis; settings: Hepatitis C virus
smiles,measurement,setting,value
Nc1nc(N)c(Cl)c(OCCOCP(=O)(O)O)n1,IC50,Human alphaherpesvirus 2,1.2 nM
same,IC50,Vaccinia virus,1.2 nM
Cc1c(C(=O)N2CCC[C@H]2C(=O)N2CC[C@H]3[C@H]2[C@H](C)C(=O)N3C(=O)C2CC2)sc2ccc(Cl)cc12,IC50,Human betaherpesvirus 5; Human betaherpesvirus 5,190 nM
O=C(Nc1ccc2c(c1)N(O)C(=O)/C2=C(\O)c1ccccc1)c1ccc(NC(=O)c2cccs2)cc1,IC50,[1],20 µM
O=C1Cc2ccccc2CC(=O)N1O,IC50,[1],1000 µM
O=C(Nc1ccc2c(C(=O)c3ccccc3)c(O)n(O)c2c1)NC1CCCCC1,IC50,[1],50 µM
Nc1nc(N)c(Br)c(OCCOCP(=O)(O)O)n1,IC50,Human alphaherpesvirus 2,0.7 nM
same,IC50,Human alphaherpesvirus 3,0.15 nM
same,IC50,Vaccinia virus,0.7 nM
same,IC50,Human betaherpesvirus 5; Human betaherpesvirus 5,0.15 nM
CCC(=O)c1c(O)n(O)c2cc(NC(=O)Nc3ccc(Cl)cc3)ccc12,IC50,[1],38 µM
COC(=O)/C(O)=C/C(=O)c1ccccc1,IC50,[1],500 µM
CN(C)c1cc(O)nc(N)n1,IC50,Human alphaherpesvirus 2,2.6 nM
same,IC50,Human alphaherpesvirus 3,0.325 nM
same,IC50,Human alphaherpesvirus 1,2.6 nM
Nc1nc2c(ncn2COCCO)c(=O)[nH]1 [ACYCLOVIR],IC50,Vaccinia virus,384 nM
Nc1cc(OC[C@H](CO)OCP(=O)(O)O)nc(N)n1,IC50,Human alphaherpesvirus 2,0.017 nM
same,IC50,Vaccinia virus,0.0065 nM
same,IC50,Human alphaherpesvirus 1,0.0048 nM
CC(=O)c1c(Br)n([C@H]2C[C@H](O)[C@@H](CO)O2)c2cc(Cl)c(Cl)cc12,IC50,Human betaherpesvirus 5; Human betaherpesvirus 5,340 nM
O=c1c2nccnc2ncn1O,IC50,[1],500 µM
Nc1cc(OCCOCP(=O)(O)O)nc(N)n1,IC50,Human alphaherpesvirus 2,0.0909 nM
same,IC50,Human alphaherpesvirus 1,0.0246 nM
C[C@@H]1C(=O)N(C(=O)C2CC2)[C@H]2CCN(C(=O)[C@@H]3CCCN3C(=O)Nc3ccccc3)[C@H]12,IC50,Human betaherpesvirus 5; Human betaherpesvirus 5,1400 nM
O=c1[nH]c(=O)n([C@H]2C[C@H](O)[C@@H](CO)O2)cc1/C=C/Br [BRIVUDINE],IC50,Human alphaherpesvirus 2,76 nM
same,IC50,Human alphaherpesvirus 3,29000 nM
same,IC50,Vaccinia virus,400000 nM
same,IC50,Human betaherpesvirus 5; Human betaherpesvirus 5,150000 nM
same,IC50,Human alphaherpesvirus 1,48000 nM
C[C@@H]1C(=O)N(C(=O)C2CC2)[C@H]2CCN(C(=O)[C@@H]3CCCN3C(=O)Nc3ccc(Cl)cc3)[C@H]12,IC50,Human betaherpesvirus 5; Human betaherpesvirus 5,260 nM
C[C@@H]1C(=O)N(C(=O)C2CC2)[C@H]2CCN(C(=O)[C@@H]3CCCN3S(=O)(=O)c3ccc(Cl)cc3)[C@H]12 (stereo in doubt; form 2),IC50,Human betaherpesvirus 5,840 nM
O=C(Nc1cccc(C(=O)O)c1)Nc1ccc2c(C(=O)c3ccccc3)c(O)n(O)c2c1,IC50,[1],3 µM
O=C(O)/C=C/C(=O)c1ccccc1,IC50,[1],500 µM
CC(C)OP(=O)(COCCOc1cc(N)ncn1)OC(C)C,IC50,Human alphaherpesvirus 2,1.2 nM
same,IC50,Human alphaherpesvirus 3,0.15 nM
same,IC50,[2],6.01 µM
same,IC50,Human alphaherpesvirus 1,1.2 nM
O=C(Nc1ccccc1)Nc1ccc2c(C(=O)c3ccccc3)c(O)n(O)c2c1,IC50,[1],29 µM
Cc1c(N)nc(N)nc1OCCOCP(=O)(O)O,IC50,Human alphaherpesvirus 2,1.2 nM
same,IC50,Human alphaherpesvirus 3,0.018 nM
same,IC50,Vaccinia virus,0.86 nM
same,IC50,Human betaherpesvirus 5; Human betaherpesvirus 5,0.72 nM
same,IC50,Human alphaherpesvirus 1,1.2 nM
CCC(=O)c1c(O)n(O)c2cc(NC(=O)c3ccc(Cl)cc3Cl)ccc12,IC50,[1],45 µM
COc1c(C#N)c2cc(Cl)c(Cl)cc2n1[C@H]1C[C@H](O)[C@@H](CO)O1,IC50,Human betaherpesvirus 5; Human betaherpesvirus 5,68000 nM
same,IC50,[2],90 µM
C[C@@H]1C(=O)N(C(=O)C2CC2)[C@H]2CCN(C(=O)[C@@H]3CCCN3C(=O)Nc3cccc(Cl)c3)[C@H]12,IC50,Human betaherpesvirus 5; Human betaherpesvirus 5,650 nM
Nc1ccn(C[C@@H](CO)OCP(=O)(O)O)c(=O)n1 (stereo in doubt; form 2) [CIDOFOVIR],IC50,Vaccinia virus,32000 nM
Cc1cn([C@H]2C[C@H](O)[C@]3(CO)C[C@H]23)c(=O)[nH]c1=O [(NORTH)-METHANOCARBATHYMIDINE],IC50,Human alphaherpesvirus 1,120 nM
O=C(O)C(=O)CCc1ccccc1,IC50,Hepatitis C virus,50 µM
same,IC50,[1],500 µM
CCCCCCCCCCCCCCCCCCOCCCOP(=O)(O)CO[C@H](CO)Cn1ccc(N)nc1=O,IC50,Human betaherpesvirus 5; Human betaherpesvirus 5,0.03 nM
CC(C)OC(=O)OCOP(=O)(CO[C@H](C)Cn1cnc2c(N)ncnc21)OCOC(=O)OC(C)C [TENOFOVIR DISOPROXIL],IC50,Vaccinia virus,157000 nM
CC(C)CC1=N/C(=C\c2ccc(F)cc2)C(=O)NC1=O,IC50,[1],365 µM
CCc1nn([C@H]2C[C@H](O)[C@@H](CO)S2)c(=O)nc1O,IC50,Human alphaherpesvirus 2,200000 nM
same,IC50,Human alphaherpesvirus 3,40000 nM
same,IC50,Vaccinia virus,200000 nM
same,IC50,Human betaherpesvirus 5; Human betaherpesvirus 5,40000 nM
same,IC50,Human alphaherpesvirus 1,120000 nM
O[C@@H]1[C@H](O)[C@@H](n2c(Cl)nc3cc(Cl)c(Cl)cc32)O[C@H]1C(F)(F)F,IC50,Human betaherpesvirus 5; Human betaherpesvirus 5,450 nM
CCCc1nn([C@H]2C[C@H](O)[C@@H](CO)S2)c(=O)[nH]c1=O,IC50,Human betaherpesvirus 5; Human betaherpesvirus 5,40000 nM
O=c1[nH]c2nccnc2c(=O)n1O,IC50,[1],95 µM
CCC(=O)c1c(O)n(O)c2cc(NC(=O)Nc3ccccc3Cl)ccc12,IC50,[1],50 µM
Cc1cn(/C=C2/CC2(CO)CO)c(=O)[nH]c1=O,IC50,Human alphaherpesvirus 2,420000 nM
same,IC50,Human alphaherpesvirus 3,420000 nM
same,IC50,Human betaherpesvirus 5; Human betaherpesvirus 5,420000 nM
same,IC50,Human alphaherpesvirus 1,420000 nM
O=C1Cc2ccccc2CN1O,IC50,[1],100 µM
CCOC(=O)Cc1c(N)nc(N)n(CCOCP(=O)(O)O)c1=O,IC50,Human alphaherpesvirus 2,1.2 nM
same,IC50,Human alphaherpesvirus 3,0.15 nM
same,IC50,Vaccinia virus,1.2 nM
same,IC50,Human betaherpesvirus 5; Human betaherpesvirus 5,0.15 nM
same,IC50,[2],0.0003 µM
same,IC50,Human alphaherpesvirus 1,1.2 nM
CC(=O)c1c(O)n(O)c2cc(NC(=O)Nc3cccc(C(=O)O)c3)ccc12,IC50,[1],14 µM
Cc1ccc(C(=O)CC(=O)C(=O)O)cc1,IC50,Hepatitis C virus,50 µM
